Here are results for 36 molecules from patent publication US11286268B1, “EIF4E-inhibiting compounds and methods” (EFFECTOR THERAPEUTICS, INC., priority 2019, dated 2022).

The experiment has as its target recombinant eIF4E (Homo sapiens (Human), UniProt P06730). Kind of experiment: Fluorescence polarization competition assay for eIF4E binding potency. An outline of the steps:
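IC50 values reflect 50% displacement of 20 nM EDA-m7GDP-ATTO-550 from 75 nM eIF4E, measured by fluorescence polarization after 30 min at room temperature. Buffer: 20 mM Tris pH 7.5, 100 mM NaCl, 1 mM DTT, 0.02% Tween-20; 1% DMSO.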
Background: Fluorescence polarisation rises when a labelled molecule tumbles more slowly, as on binding a larger partner.

Where [1] appears, read: fluorescence polarization competition, 75 nM recombinant eIF4E, 20 nM EDA-m7GDP-ATTO-550, IC50 class, read-out: elF4E FP.
Where [2] appears, read: inhibition of eIF4E/EDA-m7GDP-ATTO-550 binding by 50%, Table 4B calculated values, read-out: IC50.
The mark [3] stands for this setting: inhibition of eIF4E/EDA-m7GDP-ATTO-550 binding, calculated IC50 values, Table 4B, read-out: IC50.

SMILES strings stand for the structures. Where two headings read alike, the source gives them in different places.

Sequence of recombinant eIF4E (P06730 whole entry): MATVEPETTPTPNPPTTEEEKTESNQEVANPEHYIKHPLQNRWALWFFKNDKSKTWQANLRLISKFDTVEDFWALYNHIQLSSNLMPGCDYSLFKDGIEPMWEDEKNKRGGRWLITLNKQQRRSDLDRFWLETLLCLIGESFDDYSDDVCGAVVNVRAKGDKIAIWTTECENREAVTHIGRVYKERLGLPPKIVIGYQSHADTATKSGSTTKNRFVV

Regarding `Cc1nc2cc(C#N)cc(C#N)c2c(=O)n1C/C=C/c1ccc(Cl)cc1-c1ccnc2c(C(=O)O)csc12` [compound 286], the IC50 is 50 to 1000 nM under setting [1] and 183 nM under setting [2].

For the molecule `Cc1cc(-c2cc(Cl)ccc2OCCn2c(C)nc3c(F)c(C(F)(F)F)cc(C#N)c3c2=O)c2scc(C(=O)O)c2n1` [compound 589], the IC50 by setting is: under setting [1], under 50 nM; under setting [2], 4.45 nM.

On to `Cc1cc(-c2cc(Cl)ccc2OCCn2c(C)nc3cnc(N4CC5CCC(C4)N5C)c(C#N)c3c2=O)c2sc(C)c(C(=O)O)c2n1` [compound 868], for which the IC50 under setting [1] is under 50 nM and the IC50 under setting [2] is 17.2 nM.

Consider `Cc1cc(-c2cc(Cl)ccc2OCCn2c(C)nc3cc(Cl)c(N(C)C4CC4)c(C#N)c3c2=O)c2scc(C(=O)O)c2n1` [compound 957], for which the IC50 was under 50 nM under setting [1] and 5.81 nM under setting [2].

In the case of `N#Cc1c(C(F)F)ccc2ncn(CCOc3ccc(Cl)cc3-c3cccc(C(=O)O)c3)c(=O)c12` [compound 28], the IC50 is 50 to 1000 nM under setting [1] and 61.6 nM under setting [2].

On to `Cc1ccc(Nc2c(Cl)cc3nc(C)n(CCOc4ccc(Cl)cc4-c4cc(C)nc5c(C(=O)O)csc45)c(=O)c3c2C#N)cn1` [compound 960], for which the IC50 reads like this: under setting [1], under 50 nM; under setting [2], 39.6 nM.

Take `Cc1nc2cc(C(F)(F)F)cc(C#N)c2c(=O)n1CCOc1ccc(Cl)cc1-c1ccc(F)c2c(C(=O)O)csc12` [compound 122]: the IC50 by setting is: under setting [1], under 50 nM; under setting [2], 24.4 nM.

For `Cc1nc2cnc(N3CCN(C4COC4)CC3)c(C#N)c2c(=O)n1CC#Cc1ccc(Cl)cc1-c1ccnc2c(C(=O)O)csc12` [compound 1321], the IC50 under setting [3] is 60.2 nM.

Turning to `Cc1nc2cnc(N3CCN(C(C)(C)CF)CC3)c(C#N)c2c(=O)n1CCOc1ccc(Cl)cc1-c1ccnc2c(C(=O)NS(C)(=O)=O)csc12` [compound 1483], the IC50 under setting [3] was 13.7 nM.

In the case of `Cc1nc2c(N3CCN(C)CC(F)(F)C3)ncc(C#N)c2c(=O)n1CCOc1ccc(Cl)cc1-c1ccnc2c(C(=O)O)csc12` [compound 838], the IC50 was under 50 nM under setting [1] and 38.7 nM under setting [2].

As for `Cc1nc2cc(C(F)(F)F)c(N3CCN(C)CC3)c(C#N)c2c(=O)n1CCOc1ccc(Cl)cc1-c1ncnc2ccsc12` [compound 1250], the IC50 is, setting by setting: under setting [1], 50 to 1000 nM; under setting [3], 75.8 nM.

As for `COCc1ncc(C#N)c2c(=O)n(CCOc3ccc(Cl)cc3-c3ccc(C)c4c(C(=O)O)csc34)c(C)nc12` [compound 727], the IC50 is, setting by setting: under setting [1], under 50 nM; under setting [2], 29.4 nM.

In the case of `Cc1nc2cnc(N3CCN(CC4CC4)CC3)c(C#N)c2c(=O)n1CC#Cc1ccc(Cl)cc1-c1ccnc2c(C(=O)O)csc12` [compound 895], the IC50 under setting [1] was under 50 nM and the IC50 under setting [2] is 22.9 nM.

For `Cc1nc2cnc(N3CCC(N(C)C4CC4)CC3)c(C#N)c2c(=O)n1CC#Cc1ccc(Cl)cc1-c1ccnc2c(C(=O)O)csc12` [compound 1527], the IC50 under setting [3] is 15.6 nM.

As for `Cc1cc(-c2cc(Cl)ccc2OCCn2c(C)nc3cc(C(F)F)c(N(C)C)c(C#N)c3c2=O)c2scc(C(=O)O)c2n1` [439a], the IC50 under setting [2] is 2.87 nM.

For `Cc1cc(-c2cc(Cl)ccc2OCCn2c(C)nc3cnc(-c4cc(F)ccc4C)c(C#N)c3c2=O)c2scc(C(=O)O)c2n1` [compound 1052], the IC50 by setting is: under setting [1], under 50 nM; under setting [2], 5.46 nM.

With `O=C(O)c1cccc(-c2cc(Cl)ccc2OCCn2cnc3ccncc3c2=O)c1` [compound 12], the IC50 under setting [1] is over 1000 nM and the IC50 under setting [2] is 2390 nM.

With `Cc1cc(-c2c(C(F)(F)F)cc3nc(C)n(CCOc4ccc(Cl)cc4-c4cc(C)nc5c(C(=O)O)csc45)c(=O)c3c2C#N)ccn1` [compound 341], the IC50 runs as follows: under setting [1], under 50 nM; under setting [2], 45 nM.

As to `Cc1cc(-c2cc(Cl)ccc2OCCn2c(C)nc3cc(C(F)(F)F)c(-c4ncc(F)cc4F)c(C#N)c3c2=O)c2scc(C(=O)O)c2n1` [compound 433], the IC50 by setting is: under setting [1], under 50 nM; under setting [2], 4.15 nM.

For the molecule `Cc1nc2cnc(C3=CCN(CCF)CC3)c(C#N)c2c(=O)n1CC#Cc1ccc(Cl)cc1-c1ccnc2c(C(=O)O)csc12` [compound 1462], the IC50 under setting [3] was 20.1 nM.

As for `Cc1nc2cnc(N3CCN(C)C4(COC4)C3)c(C#N)c2c(=O)n1CCOc1ccc(Cl)cc1-c1ccnc2c(C(=O)O)csc12` [compound 1351], the IC50 under setting [3] was 16 nM.

Take `Cc1nc2cnc(N3CCN(C4(C(F)F)CC4)CC3)c(C#N)c2c(=O)n1CCOc1ccc(Cl)cc1-c1ccnc2c(C(=O)O)csc12` [compound 1310]: under setting [3], the IC50 was 21.3 nM.

As to `Cc1cc(-c2cc(Cl)ccc2OCCn2c(C)nc3cc(N4C[C@@H](C)N(C)[C@@H](C)C4)c(F)c(C#N)c3c2=O)c2sc(C)c(C(=O)O)c2n1` [1090b], the IC50 under setting [2] is 503 nM.

`Cc1nc2cnc(N(C)C3CCN(CCOC(F)F)CC3)c(C#N)c2c(=O)n1CCOc1ccc(Cl)cc1-c1ccnc2c(C(=O)O)csc12` [compound 1513]: the IC50 under setting [3] is 13.4 nM.

With `Cc1cc(-c2cc(Cl)ccc2OCCn2c(C)nc3cc(C(F)(F)F)c(CC4CNC4)c(C#N)c3c2=O)c2scc(C(=O)O)c2n1` [compound 424], the IC50 is under 50 nM under setting [1] and 4.08 nM under setting [2].

As to `CCN(c1ncc2nc(C)n(CC#Cc3ccc(Cl)cc3-c3ccnc4c(C(=O)NS(=O)(=O)C(C)(C)C)csc34)c(=O)c2c1C#N)C1CCN(C2COC2)CC1` [compound 1747], the IC50 under setting [3] is 16.5 nM.

Regarding `Cc1nc2cnc(N3CCC34CCN(CC(F)F)CC4)c(C#N)c2c(=O)n1CC#Cc1ccc(Cl)cc1-c1ccnc2c(C(=O)O)csc12` [compound 1500], the IC50 under setting [3] is 17 nM.

For `Cc1nc2c(C(F)F)ccc(C#N)c2c(=O)n1CCOc1ccc(Cl)cc1-c1cccc(C(=O)O)c1` [compound 37], the IC50 runs as follows: under setting [1], under 50 nM; under setting [2], 39.6 nM.

For the molecule `Cc1cc(-c2cc(Cl)ccc2OCCn2c(C)nc3cc(Cl)c(-c4cccc(C(F)F)n4)c(C#N)c3c2=O)c2scc(C(=O)O)c2n1` [compound 758], the IC50 by setting is: under setting [1], under 50 nM; under setting [2], 13.1 nM.

Consider `COc1cc(-c2cc(Cl)ccc2OCCn2c(C)nc3cc(C(F)(F)F)c(N4CCN(C)CC4)c(C#N)c3c2=O)cc(C(=O)O)n1` [compound 1224], for which the IC50 under setting [1] was 50 to 1000 nM.

With `Cc1cc(-c2cc(Cl)ccc2OCCn2c(C)nc3c(C)nc(-c4cccc(C(F)(F)F)c4)c(C#N)c3c2=O)c2scc(C(=O)O)c2n1` [compound 925], the IC50 under setting [1] is under 50 nM and the IC50 under setting [2] was 43.1 nM.

Regarding `Cc1nc2cc(Cl)c(OC(F)F)c(C#N)c2c(=O)n1CCOc1ccc(Cl)cc1-c1ccnc2c(C(=O)O)csc12` [compound 546], the IC50 by setting is: under setting [1], under 50 nM; under setting [2], 43.6 nM.

`Cc1sc2c(-c3cc(Cl)ccc3C#CCn3c(C)nc4cc(C(F)(F)F)c(CN5CCN(C)CC5)c(C#N)c4c3=O)ccnc2c1C(=O)O` [compound 643]: the IC50 under setting [1] is under 50 nM and the IC50 under setting [2] is 0.832 nM.

With `Cc1cc(-c2cc(Cl)ccc2OCCn2c(C)nc3cc(Cl)c(N4CC(C(F)(F)F)C4)c(C#N)c3c2=O)c2scc(C(=O)O)c2n1` [compound 689], the IC50 reads like this: under setting [1], under 50 nM; under setting [2], 11.5 nM.

Turning to `Cc1nc2cc(C(N)=O)cc(C#N)c2c(=O)n1CCOc1ccc(Cl)cc1-c1ccnc2c(C(=O)O)csc12` [compound 317], the IC50 reads like this: under setting [1], under 50 nM; under setting [2], 17.1 nM.

Turning to `Cc1nc2cnc(N3CC(N4CC(F)(F)C4)C3)c(C#N)c2c(=O)n1CCOc1ccc(Cl)cc1-c1ccnc2c(C(=O)O)csc12` [compound 1341], the IC50 under setting [3] was 21.5 nM.
